Measured values: patent US9701792B2, “Composite compositions and methods of preparing and using same” (THE REGENTS OF THE UNIVERSITY OF COLORADO, A BODY CORPORATE, priority 2014, dated 2017)

Assay: Volumetric shrinkage during photo-CuAAC reaction
Format: physicochemical
Details: monomer (2) and 4-pentyl-1-ol in chloroform; azide/alkyne to CuCl2/PMDETA/I819 50:50:1:1
Method: The volumetric shrinkage behavior during the photo-CuAAC reaction was measured using monomer (2) in FIGS. 3 and 4-pentyl-1-ol in chloroform (molar ratio of azide/alkyne to CuCl2/PMDETA/I819 as 50:50:1:1, the same as the bulk model system). […] In certain embodiments, the total shrinkage is lower in the CuAAC polymerization because the formed triazole concentration is less than the required methacrylate concentration. With appropriate fillers, the composite shrinkage may be reduced further.

- molar volume change per triazole formed: 22.2 mL/mol
Compound: CC(C)(c1ccc(OCC(O)CN=[N+]=[N-])cc1)c1ccc(OCC(O)CN=[N+]=[N-])cc1 (stereo not shown) [monomer (2), bisphenol A di(3-azido-2-hydroxypropan-1-ol) ether]
